Data from the NIST ThermoML archive (doi:10.1016/j.fluid.2007.07.016).
± gives the expanded uncertainty stated by the source.

Assay: xn = mol fraction of the nth substance listed
Conditions: 101 kPa, Liquid; for viscosity: Capillary tube (Ostwald / Ubbelohde) method; for speed of sound: Linear variable-path acoustic interferometer

Cc1cc(C)cc(C)c1 [1,3,5-trimethylbenzene] + C1CCOC1
Conditions | speed of sound, 288.15 K [m/s] | speed of sound, 298.15 K [m/s] | speed of sound, 308.15 K [m/s] | speed of sound, 318.15 K [m/s] | viscosity, 288.15 K [mPa·s] | viscosity, 298.15 K [mPa·s] | viscosity, 308.15 K [mPa·s] | viscosity, 318.15 K [mPa·s]
x2 = 0 | 1412.3 ± 1.7 | 1369.8 ± 1.7 | 1325.2 ± 1.7 | 1279 ± 1.6 | 0.7592 ± 0.0056 | 0.6572 ± 0.005 | 0.5792 ± 0.0044 | 0.5066 ± 0.004
x2 = 0.0735 | 1406.8 ± 1.7 | 1363.6 ± 1.7 | 1318.5 ± 1.7 | 1272.2 ± 1.6 | 0.7428 ± 0.0055 | 0.6449 ± 0.0049 | 0.5698 ± 0.0043 | 0.5004 ± 0.0039
x2 = 0.1513 | 1400.3 ± 1.7 | 1356.6 ± 1.7 | 1311.2 ± 1.6 | 1264.9 ± 1.6 | 0.7259 ± 0.0054 | 0.6321 ± 0.0048 | 0.5602 ± 0.0043 | 0.4943 ± 0.0039
x2 = 0.2274 | 1393.5 ± 1.7 | 1349.5 ± 1.7 | 1303.9 ± 1.6 | 1257.7 ± 1.6 | 0.7089 ± 0.0052 | 0.6192 ± 0.0047 | 0.5502 ± 0.0042 | 0.4875 ± 0.0038
x2 = 0.2986 | 1386.7 ± 1.7 | 1342.4 ± 1.7 | 1296.7 ± 1.6 | 1250.6 ± 1.6 | 0.6927 ± 0.0051 | 0.6066 ± 0.0046 | 0.5402 ± 0.0041 | 0.4805 ± 0.0038
x2 = 0.3672 | 1379.7 ± 1.7 | 1335.3 ± 1.7 | 1289.6 ± 1.6 | 1243.6 ± 1.6 | 0.6767 ± 0.005 | 0.594 ± 0.0045 | 0.5301 ± 0.004 | 0.4732 ± 0.0037
x2 = 0.4305 | 1373.5 ± 1.7 | 1328.9 ± 1.7 | 1283.1 ± 1.6 | 1237.3 ± 1.6 | 0.6616 ± 0.0049 | 0.5821 ± 0.0044 | 0.5203 ± 0.004 | 0.4658 ± 0.0037
x2 = 0.4912 | 1367.5 ± 1.7 | 1322.9 ± 1.6 | 1277 ± 1.6 | 1231.5 ± 1.6 | 0.647 ± 0.0048 | 0.5703 ± 0.0043 | 0.5106 ± 0.0039 | 0.4583 ± 0.0036
x2 = 0.5496 | 1361.9 ± 1.7 | 1317.3 ± 1.6 | 1271.4 ± 1.6 | 1226 ± 1.6 | 0.6326 ± 0.0047 | 0.5586 ± 0.0042 | 0.5008 ± 0.0038 | 0.4507 ± 0.0035
x2 = 0.6055 | 1356.8 ± 1.7 | 1312 ± 1.6 | 1266.1 ± 1.6 | 1220.8 ± 1.6 | 0.6186 ± 0.0046 | 0.5472 ± 0.0041 | 0.4911 ± 0.0037 | 0.4429 ± 0.0035
x2 = 0.6784 | 1350.4 ± 1.7 | 1305.4 ± 1.6 | 1259.4 ± 1.6 | 1214.4 ± 1.5 | 0.6 ± 0.0044 | 0.5318 ± 0.004 | 0.4779 ± 0.0037 | 0.4322 ± 0.0034
x2 = 0.7516 | 1344 ± 1.7 | 1298.8 ± 1.6 | 1252.8 ± 1.6 | 1207.9 ± 1.5 | 0.5809 ± 0.0043 | 0.5159 ± 0.0039 | 0.4642 ± 0.0036 | 0.4208 ± 0.0034
x2 = 0.828 | 1337.4 ± 1.6 | 1292.1 ± 1.6 | 1246 ± 1.6 | 1201.2 ± 1.5 | 0.5609 ± 0.0042 | 0.499 ± 0.0038 | 0.4494 ± 0.0035 | 0.4084 ± 0.0033
x2 = 0.879 | 1333.2 ± 1.6 | 1287.7 ± 1.6 | 1241.6 ± 1.6 | 1196.9 ± 1.5 | 0.5469 ± 0.0041 | 0.4872 ± 0.0037 | 0.4388 ± 0.0034 | 0.3992 ± 0.0032
x2 = 0.9412 | 1328.2 ± 1.6 | 1282.6 ± 1.6 | 1236.4 ± 1.6 | 1191.8 ± 1.5 | 0.5299 ± 0.004 | 0.4726 ± 0.0036 | 0.4258 ± 0.0034 | 0.3879 ± 0.0032
